# Assay results published in publication PMC10337138 (Acta Neuropathologica Communications, 2023).
# Tests used:
# Settings in all cases: 1 mM ATP; inhibitor
# [1] = target: CDK5/P35 (Homo sapiens, UniProt Q00535)
# Method: (§1) Kinase selectivity panel Kinome profiling was conducted by AssayQuant Technologies (Marlboro, MA) using Sox chromophore technology and Sox-based peptide substrates developed for human kinases in a 384-well format. Compounds were tested at 1 µM in the presence of 1 mM ATP.
# [2] = target: BRSK1 (Homo sapiens, UniProt Q8TDC3)
# Method: as §1
# [3] = target: FRK (Homo sapiens, UniProt P42685)
# Method: as §1
# [4] = target: ZAP70 (Homo sapiens, UniProt P43403)
# Method: as §1
# [5] = target: PASK (Homo sapiens, UniProt Q96RG2)
# Method: as §1
# [6] = target: RAF1 (Homo sapiens, UniProt P04049)
# Method: as §1
# [7] = target: TBK1 (Homo sapiens, UniProt Q9UHD2)
# Method: as §1
# [8] = target: MAP3K13 (Homo sapiens, UniProt O43283)
# Method: as §1
# [9] = target: MAPK10/JNK3 (Homo sapiens, UniProt P53779)
# Method: as §1
# [10] = target: INSRR (Homo sapiens, UniProt P14616)
# Method: as §1
# [11] = target: SGK3 (Homo sapiens, UniProt Q96BR1)
# Method: as §1
# [12] = target: CDK6/D1 (Homo sapiens, UniProt Q00534)
# Method: as §1
# [13] = target: EEF2K (Homo sapiens, UniProt O00418)
# Method: as §1
# [14] = target: TYK2(JH1) (Homo sapiens, UniProt P29597)
# Method: as §1
# [15] = target: T1, PRKCB2/PKCB2 (Homo sapiens, UniProt P05771)
# T1 construct: gene PRKCB
# Method: as §1
# [16] = target: T2, MNK2 (Homo sapiens, UniProt Q9HBH9)
# T2 construct: gene MKNK2
# Method: as §1
# [17] = target: TYK2(JH1JH2) (Homo sapiens, UniProt P29597)
# Method: as §1
# [18] = target: NEK3 (Homo sapiens, UniProt P51956)
# Method: as §1
# [19] = target: ITK (Homo sapiens, UniProt Q08881)
# Method: as §1
# [20] = target: HIPK3 (Homo sapiens, UniProt Q9H422)
# Method: as §1
# [21] = target: CSNK1G2/CK1G2 (Homo sapiens, UniProt P78368)
# Method: as §1
# [22] = target: MAP2K1/MEK1 (Homo sapiens, UniProt Q02750)
# Method: as §1
# [23] = target: PIM2 (Homo sapiens, UniProt Q9P1W9)
# Method: as §1
# [24] = target: CHEK1/CHK1 (Homo sapiens, UniProt O14757)
# Method: as §1
# [25] = target: CRIK/CIT (Homo sapiens, UniProt O14578)
# Method: as §1
# [26] = target: NLK (Homo sapiens, UniProt Q9UBE8)
# Method: as §1
# [27] = target: IRAK1 (Homo sapiens, UniProt P51617)
# Method: as §1
# [28] = target: CAMK2G (Homo sapiens, UniProt Q13555)
# Method: as §1
# [29] = target: MAPKAPK5/MK5 (Homo sapiens, UniProt Q8IW41)
# Method: as §1
# [30] = target: ABL2 (Homo sapiens, UniProt P42684)
# Method: as §1
# [31] = target: SGK2 (Homo sapiens, UniProt Q9HBY8)
# Method: as §1
# [32] = target: FGR (Homo sapiens, UniProt P09769)
# Method: as §1
# [33] = target: JAK3(JH1) (Homo sapiens, UniProt P52333)
# Method: as §1
# [34] = target: SIK3 (Homo sapiens, UniProt Q9Y2K2)
# Method: as §1
# [35] = target: EPHB3 (Homo sapiens, UniProt P54753)
# Method: as §1
# [36] = target: ULK1 (Homo sapiens, UniProt O75385)
# Method: as §1
# [37] = target: CSF1R/FMS (Homo sapiens, UniProt P07333)
# Method: as §1
# [38] = target: T3, ZNF33A/ZAK (Homo sapiens, UniProt Q9NYL2)
# T3 construct: gene MAP3K20
# Method: as §1
# [39] = target: CAMKK2 (Homo sapiens, UniProt Q96RR4)
# Method: as §1
# TYK2(JH1JH2), sequence (P29597 whole entry): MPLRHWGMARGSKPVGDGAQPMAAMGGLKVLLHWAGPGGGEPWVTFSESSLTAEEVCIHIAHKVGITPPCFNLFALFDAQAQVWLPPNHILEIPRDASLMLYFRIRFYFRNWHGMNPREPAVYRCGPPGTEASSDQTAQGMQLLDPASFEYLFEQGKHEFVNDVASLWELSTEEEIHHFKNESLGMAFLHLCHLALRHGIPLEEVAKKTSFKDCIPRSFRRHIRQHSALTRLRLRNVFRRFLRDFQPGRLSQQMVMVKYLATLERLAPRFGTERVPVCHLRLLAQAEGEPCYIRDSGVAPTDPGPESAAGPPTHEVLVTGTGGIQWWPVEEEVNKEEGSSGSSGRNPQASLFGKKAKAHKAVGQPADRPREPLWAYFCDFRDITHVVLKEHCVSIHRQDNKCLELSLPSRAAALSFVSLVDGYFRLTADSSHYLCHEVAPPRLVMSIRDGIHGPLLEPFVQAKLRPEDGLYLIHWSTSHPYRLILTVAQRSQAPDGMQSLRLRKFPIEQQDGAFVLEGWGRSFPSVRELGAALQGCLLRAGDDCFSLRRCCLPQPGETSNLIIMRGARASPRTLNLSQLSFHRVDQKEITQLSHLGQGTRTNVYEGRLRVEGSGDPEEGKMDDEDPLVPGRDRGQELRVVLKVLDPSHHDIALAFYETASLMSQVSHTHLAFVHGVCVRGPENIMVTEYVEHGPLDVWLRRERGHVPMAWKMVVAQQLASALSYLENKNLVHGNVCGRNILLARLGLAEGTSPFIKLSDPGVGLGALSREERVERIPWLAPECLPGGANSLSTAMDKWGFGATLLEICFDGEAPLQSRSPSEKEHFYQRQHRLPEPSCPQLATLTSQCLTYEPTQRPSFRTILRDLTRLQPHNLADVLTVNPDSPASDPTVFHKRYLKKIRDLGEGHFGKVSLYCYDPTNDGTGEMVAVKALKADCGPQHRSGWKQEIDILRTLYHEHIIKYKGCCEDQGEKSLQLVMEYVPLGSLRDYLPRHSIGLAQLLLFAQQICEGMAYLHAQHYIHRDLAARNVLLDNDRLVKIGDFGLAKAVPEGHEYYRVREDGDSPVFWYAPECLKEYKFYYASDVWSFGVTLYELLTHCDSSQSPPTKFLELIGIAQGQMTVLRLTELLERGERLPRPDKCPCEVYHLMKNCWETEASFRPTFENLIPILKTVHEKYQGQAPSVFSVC
# TYK2(JH1), sequence (P29597 whole entry): as above
# BRSK1, sequence (Q8TDC3 whole entry): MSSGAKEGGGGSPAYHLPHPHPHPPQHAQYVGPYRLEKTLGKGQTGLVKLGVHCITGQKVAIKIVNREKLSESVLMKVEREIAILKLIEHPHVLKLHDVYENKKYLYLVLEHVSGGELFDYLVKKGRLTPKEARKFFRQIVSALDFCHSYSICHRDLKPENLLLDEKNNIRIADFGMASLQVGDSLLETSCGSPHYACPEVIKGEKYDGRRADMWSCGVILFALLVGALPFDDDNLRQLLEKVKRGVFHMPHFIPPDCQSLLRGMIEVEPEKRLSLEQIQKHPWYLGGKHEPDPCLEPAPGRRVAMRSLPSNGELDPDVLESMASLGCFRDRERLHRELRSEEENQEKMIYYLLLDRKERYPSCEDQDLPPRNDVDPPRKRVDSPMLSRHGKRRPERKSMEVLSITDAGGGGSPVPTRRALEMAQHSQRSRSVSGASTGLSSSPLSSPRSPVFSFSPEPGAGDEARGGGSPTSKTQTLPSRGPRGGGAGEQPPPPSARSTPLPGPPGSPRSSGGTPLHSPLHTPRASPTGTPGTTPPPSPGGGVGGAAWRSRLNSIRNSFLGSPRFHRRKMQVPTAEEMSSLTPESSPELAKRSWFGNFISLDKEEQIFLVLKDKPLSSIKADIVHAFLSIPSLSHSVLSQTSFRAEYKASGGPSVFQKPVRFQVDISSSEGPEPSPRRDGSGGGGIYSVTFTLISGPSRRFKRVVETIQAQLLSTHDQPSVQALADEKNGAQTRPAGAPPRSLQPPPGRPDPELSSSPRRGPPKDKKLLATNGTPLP
# CSNK1G2/CK1G2, sequence (P78368 whole entry): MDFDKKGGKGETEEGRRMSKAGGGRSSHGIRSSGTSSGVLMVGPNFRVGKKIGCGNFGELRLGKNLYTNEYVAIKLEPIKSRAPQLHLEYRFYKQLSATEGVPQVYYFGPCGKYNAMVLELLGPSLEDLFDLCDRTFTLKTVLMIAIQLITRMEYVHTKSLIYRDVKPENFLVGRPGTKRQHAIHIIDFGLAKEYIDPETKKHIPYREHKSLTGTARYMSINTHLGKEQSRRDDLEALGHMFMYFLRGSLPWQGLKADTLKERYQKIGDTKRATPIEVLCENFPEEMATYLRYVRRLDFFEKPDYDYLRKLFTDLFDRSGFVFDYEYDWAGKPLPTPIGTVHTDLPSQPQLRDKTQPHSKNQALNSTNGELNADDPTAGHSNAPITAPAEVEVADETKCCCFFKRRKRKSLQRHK
# NLK, sequence (Q9UBE8 whole entry): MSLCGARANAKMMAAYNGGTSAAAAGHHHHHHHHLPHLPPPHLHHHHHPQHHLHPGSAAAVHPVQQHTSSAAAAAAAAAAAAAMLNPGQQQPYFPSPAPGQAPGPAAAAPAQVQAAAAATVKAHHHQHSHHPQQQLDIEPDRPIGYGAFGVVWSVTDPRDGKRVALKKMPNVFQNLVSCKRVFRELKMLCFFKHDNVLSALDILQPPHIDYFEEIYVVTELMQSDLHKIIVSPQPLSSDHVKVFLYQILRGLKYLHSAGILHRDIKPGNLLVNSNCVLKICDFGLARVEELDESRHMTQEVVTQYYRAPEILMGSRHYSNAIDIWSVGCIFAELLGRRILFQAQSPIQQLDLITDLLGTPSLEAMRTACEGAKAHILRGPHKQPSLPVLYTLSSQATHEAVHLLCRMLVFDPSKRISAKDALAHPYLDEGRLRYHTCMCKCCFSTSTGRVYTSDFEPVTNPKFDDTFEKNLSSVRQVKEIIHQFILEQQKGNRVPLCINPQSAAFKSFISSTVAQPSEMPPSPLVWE
# MAPK10/JNK3, sequence (P53779 whole entry): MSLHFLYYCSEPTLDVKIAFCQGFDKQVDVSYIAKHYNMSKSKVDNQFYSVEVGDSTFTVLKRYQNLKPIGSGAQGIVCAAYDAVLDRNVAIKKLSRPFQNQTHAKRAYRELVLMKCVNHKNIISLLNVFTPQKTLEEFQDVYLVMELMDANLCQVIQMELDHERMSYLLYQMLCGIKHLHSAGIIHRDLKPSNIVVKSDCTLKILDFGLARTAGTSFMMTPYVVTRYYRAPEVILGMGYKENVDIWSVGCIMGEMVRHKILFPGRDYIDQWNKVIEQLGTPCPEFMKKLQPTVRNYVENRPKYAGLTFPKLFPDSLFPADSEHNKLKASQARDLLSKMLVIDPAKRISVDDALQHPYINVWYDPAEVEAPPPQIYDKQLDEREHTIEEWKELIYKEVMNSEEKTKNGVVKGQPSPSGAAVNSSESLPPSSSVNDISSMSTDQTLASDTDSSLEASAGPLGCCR
# CDK6/D1, sequence (Q00534 whole entry): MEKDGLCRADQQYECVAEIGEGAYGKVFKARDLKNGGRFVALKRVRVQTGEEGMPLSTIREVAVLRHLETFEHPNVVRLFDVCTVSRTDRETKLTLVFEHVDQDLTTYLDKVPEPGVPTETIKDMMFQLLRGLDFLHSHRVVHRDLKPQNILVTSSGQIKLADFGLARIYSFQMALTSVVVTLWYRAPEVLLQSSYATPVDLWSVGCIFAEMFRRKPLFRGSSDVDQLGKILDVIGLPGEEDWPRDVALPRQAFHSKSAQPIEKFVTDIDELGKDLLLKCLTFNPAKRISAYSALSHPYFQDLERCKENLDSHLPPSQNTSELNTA
# CDK6/D1, sequence (P24385 whole entry partner): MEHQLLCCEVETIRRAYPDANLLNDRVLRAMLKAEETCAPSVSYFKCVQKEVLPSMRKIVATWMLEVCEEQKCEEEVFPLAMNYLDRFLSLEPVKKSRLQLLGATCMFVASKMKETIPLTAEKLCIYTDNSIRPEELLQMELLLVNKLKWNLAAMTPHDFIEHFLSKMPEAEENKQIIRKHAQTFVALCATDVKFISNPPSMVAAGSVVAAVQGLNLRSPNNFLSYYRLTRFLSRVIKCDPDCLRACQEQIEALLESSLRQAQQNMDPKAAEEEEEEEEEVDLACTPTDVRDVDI
# FGR, sequence (P09769 whole entry): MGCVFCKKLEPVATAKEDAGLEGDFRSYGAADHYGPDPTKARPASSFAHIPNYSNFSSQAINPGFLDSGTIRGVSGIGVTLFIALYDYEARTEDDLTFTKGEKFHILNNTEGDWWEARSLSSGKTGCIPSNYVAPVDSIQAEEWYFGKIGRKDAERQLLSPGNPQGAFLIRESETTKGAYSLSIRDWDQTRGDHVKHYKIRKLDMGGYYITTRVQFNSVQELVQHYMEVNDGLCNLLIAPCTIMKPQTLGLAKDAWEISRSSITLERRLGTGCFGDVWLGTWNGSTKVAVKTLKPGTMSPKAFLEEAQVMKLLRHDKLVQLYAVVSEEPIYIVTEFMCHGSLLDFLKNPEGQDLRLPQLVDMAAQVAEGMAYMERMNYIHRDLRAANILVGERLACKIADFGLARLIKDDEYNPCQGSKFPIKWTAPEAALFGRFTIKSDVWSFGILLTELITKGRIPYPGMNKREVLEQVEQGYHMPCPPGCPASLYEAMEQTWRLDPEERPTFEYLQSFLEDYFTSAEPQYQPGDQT
# PIM2, sequence (Q9P1W9 whole entry): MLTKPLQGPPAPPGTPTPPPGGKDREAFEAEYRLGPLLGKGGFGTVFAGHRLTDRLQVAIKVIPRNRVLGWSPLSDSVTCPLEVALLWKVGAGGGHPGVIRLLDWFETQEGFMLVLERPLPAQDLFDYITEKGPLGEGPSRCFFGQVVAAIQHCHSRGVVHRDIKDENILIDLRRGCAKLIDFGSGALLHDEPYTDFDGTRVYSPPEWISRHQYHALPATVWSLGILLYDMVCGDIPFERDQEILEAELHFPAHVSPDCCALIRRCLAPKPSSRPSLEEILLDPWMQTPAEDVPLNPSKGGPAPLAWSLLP
smiles,measurement,setting,value
C=CC(=O)N1CCC[C@@H](n2nc(-c3ccc(Oc4ccccc4)cc3)c3c(N)ncnc32)C1 [Ibrutinib],"1 µM GBD00276 (ibrutinib), % inhibition",[1],2.273%
same,"1 µM GBD00276 (ibrutinib), % inhibition",[2],2.387%
same,"1 µM GBD00276 (ibrutinib), % inhibition",[3],45.62%
same,"1 µM GBD00276 (ibrutinib), % inhibition",[4],-0.02061%
same,"1 µM GBD00276 (ibrutinib), % inhibition",[5],16.95%
same,"1 µM GBD00276 (ibrutinib), % inhibition",[6],-13.81%
same,"1 µM GBD00276 (ibrutinib), % inhibition",[7],-3.072%
same,"1 µM GBD00276 (ibrutinib), % inhibition",[8],-13.52%
same,"1 µM GBD00276 (ibrutinib), % inhibition",[9],-5.63%
same,"1 µM GBD00276 (ibrutinib), % inhibition",[10],19.45%
same,"1 µM GBD00276 (ibrutinib), % inhibition",[11],7.387%
same,"1 µM GBD00276 (ibrutinib), % inhibition",[12],3.427%
same,"1 µM GBD00276 (ibrutinib), % inhibition",[13],6.273%
same,"1 µM GBD00276 (ibrutinib), % inhibition",[14],12.87%
same,"1 µM GBD00276 (ibrutinib), % inhibition",[15],-15.35%
same,"1 µM GBD00276 (ibrutinib), % inhibition",[16],-1.826%
same,"1 µM GBD00276 (ibrutinib), % inhibition",[17],-13.3%
same,"1 µM GBD00276 (ibrutinib), % inhibition",[18],-16.35%
same,"1 µM GBD00276 (ibrutinib), % inhibition",[19],38.79%
same,"1 µM GBD00276 (ibrutinib), % inhibition",[20],-0.6618%
same,"1 µM GBD00276 (ibrutinib), % inhibition",[21],17.59%
same,"1 µM GBD00276 (ibrutinib), % inhibition",[22],-19%
same,"1 µM GBD00276 (ibrutinib), % inhibition",[23],-3.683%
same,"1 µM GBD00276 (ibrutinib), % inhibition",[24],-3.114%
same,"1 µM GBD00276 (ibrutinib), % inhibition",[25],-0.4372%
same,"1 µM GBD00276 (ibrutinib), % inhibition",[26],-34.47%
same,"1 µM GBD00276 (ibrutinib), % inhibition",[27],5.215%
same,"1 µM GBD00276 (ibrutinib), % inhibition",[28],8.429%
same,"1 µM GBD00276 (ibrutinib), % inhibition",[29],3.643%
same,"1 µM GBD00276 (ibrutinib), % inhibition",[30],-32.13%
same,"1 µM GBD00276 (ibrutinib), % inhibition",[31],-4.773%
same,"1 µM GBD00276 (ibrutinib), % inhibition",[32],56.77%
same,"1 µM GBD00276 (ibrutinib), % inhibition",[33],10.34%
same,"1 µM GBD00276 (ibrutinib), % inhibition",[34],-15.95%
same,"1 µM GBD00276 (ibrutinib), % inhibition",[35],8.156%
same,"1 µM GBD00276 (ibrutinib), % inhibition",[36],-8.778%
same,"1 µM GBD00276 (ibrutinib), % inhibition",[37],9.642%
same,"1 µM GBD00276 (ibrutinib), % inhibition",[38],-3.326%
same,"1 µM GBD00276 (ibrutinib), % inhibition",[39],2.203%
